Measured values reported in patent publication EP4420661B1, “SMALL MOLECULES TARGETING GLYCOPROTEIN VI AS ANTIPLATELET AGENTS FOR USE IN THE PREVENTION AND/OR TREATMENT OF THROMBOSIS AND ASSOCIATED PATHOLOGIES” (Universidade de Santiago de Compostela, priority 2023, dated 2024).

Assays:
Type in all cases: in vitro ADME
[1] = tested on: Plasma protein; assay: plasma protein binding, Rapid Equilibrium Dialysis (RED), dog; conditions: 5 µM, 4h at 37°C
Method: (§1) Plasma from Seralab was employed in the assay and was carried out by employing Rapid Equilibrium Dialysis (RED) from Thermo Scientific.
(§2) The compounds were dissolved at 5 µM in plasma and added to the corresponding insert of the RED device. Dialysis buffer was added to the corresponding insert of the RED device. Plate was incubated for 4h at 37°C.
(§3) After the incubation period 50 µL aliquots of each chamber were transferred to empty vials. 50 µL of dialysis buffer were added to the plasma samples and 50 µL of plasma were added to the buffer samples. 300 µL of acetonitrile were added to all the samples and centrifuged at 4000 rpm 100 µL aliquots of the supernatants were transferred to a LC analysis plate. Samples were analyzed in a UPLC/MS/MS. Stationary phase: Acquity UPLC® BEHC18 1,7 µm (2.1 mm x 50 mm) (Waters). Gradient: A (H2O + 0.1% Formic acid); B (ACN + 0.1% Formic acid); Flow: 0.6mL/min Table 8: UPLC gradient / Protein binding assay
(§4) The chromatographic equipment employed was an ACQUITY UPLC / Xevo TQD System. Compound concentrations were calculated from the MS peak areas. Table 9: Plasma protein binding of the compounds of formula (I) in rat, mice, dogs and humans / (*) low recovery

[2] = as above; conditions: 4h at 37°C
Method: as §1, §2, §3, §4

[3] = tested on: Plasma protein; assay: plasma protein binding, Rapid Equilibrium Dialysis (RED), human; conditions: 5 µM, 4h at 37°C
Method: as §1, §2, §3, §4

[4] = as above; conditions: 4h at 37°C
Method: as §1, §2, §3, §4

[5] = tested on: Plasma protein; assay: plasma protein binding, Rapid Equilibrium Dialysis (RED), mouse; conditions: 5 µM, 4h at 37°C, (*) low recovery for (If)
Method: as §1, §2, §3, §4

[6] = as above; conditions: 4h at 37°C, (*) low recovery for (If)
Method: as §1, §2, §3, §4

[7] = tested on: Plasma protein; assay: plasma protein binding, Rapid Equilibrium Dialysis (RED), rat; conditions: 5 µM, 4h at 37°C
Method: as §1, §2, §3, §4

[8] = as above; conditions: 4h at 37°C
Method: as §1, §2, §3, §4

O=C1NC(=O)C(c2ccccc2)(c2ccccc2)N1 [Phenytoin, reference compound]
Unbound fraction [1]: 18.94%
fraction unbound at 4 h, 5 µM [2]: 0.189
Unbound fraction [3]: 17.77%
fraction unbound at 4 h, 5 µM [4]: 0.178
Unbound fraction [5]: 17.94%
fraction unbound at 4 h, 5 µM [6]: 0.179
Unbound fraction [7]: 13.76%
fraction unbound at 4 h, 5 µM [8]: 0.138
